Laboratory results from US20060069132A1, “Azolecarboxamide herbicides” (priority 2004, published 2006).

Experiments:
[1] = tested on: morningglory; experiment: Test A pre-/postemergence herbicide test; format: in vivo, Ipomoea spp.
Procedure, shortened: (§1)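 Pre: seeded sandy loam, directed soil spray, compound in non-phytotoxic solvent + surfactant. Post: 1–2-leaf plants (2–10 cm), sprayed to runoff. Greenhouse ~10 d; visual injury vs untreated, 0–100 scale.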

[2] = tested on: lambsquarters; experiment: Test B pre-/postemergence herbicide test; format: in vivo, Chenopodium album; conditions: for Lambsquarters plant response rating: postemergence
Procedure, shortened: (§2)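 Greenhouse pot assay with simultaneous preemergence (treated seed) and postemergence (2–18 cm seedlings) applications of surfactant-containing, non-phytotoxic solvent formulations. Response scored visually 13–15 days later on a 0–100 scale, 100 meaning complete control.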

[3] = tested on: giant foxtail; experiment: Test A pre-/postemergence herbicide test; format: in vivo, Setaria faberi
Procedure, shortened: as §1

[4] = tested on: corn; experiment: Test B pre-/postemergence herbicide test; format: in vivo, Zea mays; conditions: for Corn plant response rating: postemergence
Procedure, shortened: as §2

[5] = tested on: cocklebur; experiment: Test B pre-/postemergence herbicide test; format: in vivo, Xanthium strumarium; conditions: for Cocklebur plant response rating: postemergence
Procedure, shortened: (§3)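 Test chemicals in a non-phytotoxic solvent mixture with surfactant were applied preemergence to seeded species and postemergence to plants 2-18 cm tall (1- to 4-leaf stage); rice and barnyardgrass were also tested in a flooded paddy at the 2-leaf stage. Visual rating versus controls after 13-15 days in greenhouse, scale 0 (no effect) to 100 (complete control).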

[6] = tested on: Surinam grass; experiment: Test B pre-/postemergence herbicide test; format: in vivo, Urochloa decumbens; conditions: for Surinam Grass plant response rating: postemergence
Procedure, shortened: as §2

[7] = tested on: wild oat; experiment: Test B postemergence herbicide test; format: in vivo, Avena fatua; conditions: postemergence
Procedure, shortened: (§4)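 Read-out: visual comparison with controls, scored 0 to 100, where 100 means complete control and 0 no effect. Formulated chemicals were applied postemergence to plants 2–18 cm tall (1- to 4-leaf), or to flooded-paddy plants at the 2-leaf stage, then held 13 to 15 days under glass.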

[8] = tested on: rice; experiment: Test B flooded paddy test; format: in vivo, Oryza sativa; conditions: 1000 g ai/ha, scale 0 to 100 (0 no effect, 100 complete control)
Procedure, shortened: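 Greenhouse test; postemergence application to plants at 1–4 leaves (2–18 cm); paddy species at 2 leaves; evaluated visually vs controls at 13–15 days; scale 0–100 (100 = complete control).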

[9] = tested on: barnyardgrass; experiment: Test B pre-/postemergence herbicide test; format: in vivo, Echinochloa crus-galli; conditions: for Barnyardgrass plant response rating: postemergence
Procedure, shortened: as §3

[10] = tested on: large crabgrass; experiment: Test A pre-/postemergence herbicide test; format: in vivo, Digitaria sanguinalis
Procedure, shortened: as §1

[11] = tested on: ducksalad; experiment: Test B flooded paddy test; format: in vivo, Heteranthera limosa; conditions: 1000 g ai/ha, scale 0 to 100 (0 no effect, 100 complete control)
Procedure, shortened: (§5)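 Paddy species grown to the 2-leaf stage under flooding; blackgrass sprayed postemergence at 2–18 cm (1- to 4-leaf stage). Plants kept in a greenhouse for 13 to 15 days, then visually rated against controls on 0 (no effect) to 100 (complete control).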

[12] = tested on: morningglory; experiment: Test B pre-/postemergence herbicide test; format: in vivo, Ipomoea coccinea; conditions: for Morningglory plant response rating: postemergence
Procedure, shortened: as §3

[13] = tested on: velvetleaf; experiment: Test A pre-/postemergence herbicide test; format: in vivo, Abutilon theophrasti
Procedure, shortened: as §1

[14] = tested on: large crabgrass; experiment: Test B pre-/postemergence herbicide test; format: in vivo, Digitaria sanguinalis; conditions: for Crabgrass, Large plant response rating: postemergence
Procedure, shortened: as §2

[15] = tested on: pigweed; experiment: Test B pre-/postemergence herbicide test; format: in vivo, Amaranthus retroflexus; conditions: for Pigweed plant response rating: postemergence
Procedure, shortened: as §2

[16] = tested on: small flower umbrella sedge; experiment: Test B flooded paddy test; format: in vivo, Cyperus difformis; conditions: 1000 g ai/ha, scale 0 to 100 (0 no effect, 100 complete control)
Procedure, shortened: as §5

[17] = tested on: wheat; experiment: Test B postemergence herbicide test; format: in vivo, Triticum aestivum; design: key to Wheat plant response rating: 0 = no effect, 100 = complete control; conditions: postemergence
Procedure, shortened: as §4

[18] = tested on: velvetleaf; experiment: Test B pre-/postemergence herbicide test; format: in vivo, Abutilon theophrasti; conditions: for Velvetleaf plant response rating: postemergence
Procedure, shortened: as §2

[19] = tested on: giant foxtail; experiment: Test B pre-/postemergence herbicide test; format: in vivo, Setaria faberi; conditions: for Foxtail, Giant plant response rating: postemergence
Procedure, shortened: as §2

[20] = tested on: redroot pigweed; experiment: Test A pre-/postemergence herbicide test; format: in vivo, Amaranthus retroflexus
Procedure, shortened: as §1

[21] = tested on: blackgrass; experiment: Test B postemergence herbicide test; format: in vivo, Alopecurus myosuroides; conditions: postemergence
Procedure, shortened: as §5

[22] = tested on: rice; experiment: Test B pre-/postemergence herbicide test; format: in vivo, Oryza sativa; conditions: 0 = no effect, 100 = complete control, preemergence
Procedure, shortened: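 Species tested were Echinochloa crus-galli, Ipomoea coccinea, Xanthium strumarium and Oryza sativa, treated both before emergence and at the 1- to 4-leaf stage; rice and barnyardgrass were also tested under flooding at 2 leaves. Greenhouse incubation lasted 13–15 days before visual 0–100 scoring.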

[23] = tested on: barnyardgrass; experiment: Test B flooded paddy test; format: in vivo, Echinochloa crus-galli; conditions: 1000 g ai/ha, scale 0 to 100 (0 no effect, 100 complete control)
Procedure, shortened: as §5

[24] = tested on: barnyardgrass; experiment: Test A pre-/postemergence herbicide test; format: in vivo, Echinochloa crus-galli
Procedure, shortened: as §1

[25] = Postemergence, 500 g ai/ha, 0 to 100 scale, 0 no effect, 100 complete control
[26] = Postemergence, 2000 g ai/ha, 0 to 100 scale, 0 no effect, 100 complete control
[27] = Preemergence, 2000 g ai/ha, visual rating, 0 to 100 scale (0 no effect, 100 complete control)
[28] = preemergence, 500 g ai/ha, visual injury, 0 to 100 scale (0 no effect, 100 complete control)
[29] = 125 g ai/ha, 0 = no effect, 100 = complete control, preemergence
[30] = 125 g ai/ha, visual rating, scale 0 (no effect) to 100 (complete control)
[31] = 500 g ai/ha, visual rating, 0 = no effect, 100 = complete control, preemergence
[32] = 500 g ai/ha, scale 0 to 100, 0 is no effect, 100 is complete control

C#CCNC(=O)c1cncc(NC(=O)c2cc(C(C)(C)C)nn2CC)n1 [Compound 289]
55: Crabgrass, Large plant response rating [10, 27]
40: Foxtail, Giant plant response rating [3, 27] | Plant response rating, Barnyardgrass [24, 26]
50: Plant response rating, Pigweed [20, 26] | Barnyardgrass plant response rating [24, 27]
100: Plant response rating, Lambsquarters [2, 31] | Plant response rating, Pigweed [15, 31]
0: Morningglory plant response rating [1, 28] | Lambsquarters plant response rating (0 to 100 scale) [2, 29] | Lambsquarters plant response rating [2, 30] | Corn plant response rating (0 to 100 scale) [4, 29] | Corn plant response rating [4, 30] | Plant response rating, Corn [4, 31] | Corn plant response rating [4, 32] | Cocklebur plant response rating (0 to 100 scale) [5, 29] | Cocklebur plant response rating [5, 30] | Plant response rating, Cocklebur [5, 31] | Cocklebur plant response rating [5, 32] | Surinam Grass plant response rating (0 to 100 scale) [6, 29] | Surinam Grass plant response rating [6, 30] | Plant response rating, Surinam Grass [6, 31] | Surinam Grass plant response rating [6, 32] | Rice plant response rating [8] | Barnyardgrass plant response rating (0 to 100 scale) [9, 29] | Barnyardgrass plant response rating [9, 30] | Plant response rating, Barnyardgrass [9, 31] | Barnyardgrass plant response rating [9, 32] | Crabgrass, Large plant response rating [10, 28] | Ducksalad plant response rating [11] | Morningglory plant response rating (0 to 100 scale) [12, 29] | Morningglory plant response rating [12, 30] | Plant response rating, Morningglory [12, 31] | Morningglory plant response rating [12, 32] | Velvetleaf plant response rating [13, 25] | Velvetleaf plant response rating [13, 28] | Crabgrass, Large plant response rating (0 to 100 scale) [14, 29] | Crabgrass, Large plant response rating [14, 30] | Crabgrass, Large plant response rating [14, 32] | Pigweed plant response rating (0 to 100 scale) [15, 29] | Sedge, Umbrella plant response rating [16] | Velvetleaf plant response rating [18, 30] | Plant response rating, Velvetleaf [18, 31] | Foxtail, Giant plant response rating (0 to 100 scale) [19, 29] | Plant response rating, Foxtail, Giant [19, 31] | Pigweed plant response rating [20, 28] | Rice plant response rating (0 to 100 scale) ([22]; 125 g ai/ha) | Plant response rating, Rice ([22]; 500 g ai/ha, visual rating) | Barnyardgrass plant response rating [23] | Barnyardgrass plant response rating [24, 28]
60: Foxtail, Giant plant response rating [19, 32]
15: Morningglory plant response rating [1, 27]
30: Lambsquarters plant response rating [2, 32] | Oat, Wild plant response rating [7, 32]
75: Pigweed plant response rating [20, 27]
10: Morningglory plant response rating [1, 25] | Foxtail, Giant plant response rating [3, 25] | Foxtail, Giant plant response rating [3, 28] | Pigweed plant response rating [15, 30] | Velvetleaf plant response rating [18, 32] | Blackgrass plant response rating [21, 30] | Blackgrass plant response rating [21, 32] | Barnyardgrass plant response rating [24, 25]
70: Plant response rating, Foxtail, Giant [3, 26]
5: Plant response rating, Velvetleaf [13, 26]
20: Plant response rating, Morningglory [1, 26] | Oat, Wild plant response rating [7, 30] | Crabgrass, Large plant response rating [10, 25] | Plant response rating, Crabgrass, Large [10, 26] | Velvetleaf plant response rating [13, 27] | Plant response rating, Crabgrass, Large [14, 31] | Pigweed plant response rating [15, 32] | Wheat plant response rating [17, 30] | Wheat plant response rating [17, 32] | Foxtail, Giant plant response rating [19, 30] | Pigweed plant response rating [20, 25]
